# The source made the active and inactive calls. No cut-off for these calls is given here.
# What was measured:
# [1] = system: Staphylococcus aureus; assay: Antimicrobial activity against Staphylococcus aureus ATCC 6538 at 1000 ug/ml by macro-dilution broth culture method; format: functional, organism-based
# [2] = system: Candida albicans; assay: Antimicrobial activity against Candida albicans ATCC 18804 at 1000 ug/ml by macro-dilution broth culture method; format: functional, organism-based
# [3] = system: Pseudomonas aeruginosa; assay: Antimicrobial activity against Pseudomonas aeruginosa ATCC 25619 at 1000 ug/ml by macro-dilution broth culture method; format: functional, organism-based
# [4] = system: HeLa; assay: Cytotoxicity against human HeLa cells at 100 ug/ml; format: functional
SMILES,Activity [1],Activity [2],Activity [3],Activity [4]
O=C1OC[C@H]2OC(=O)c3cc(O)c(O)c(O)c3-c3c(O)c(O)c(O)c4c3C(=O)O[C@H]([C@H]3OC(=O)c5c-4c(O)c(O)c(O)c5[C@H]3O)[C@@H]2OC(=O)c2cc(O)c(O)c(O)c2-c2c1cc(O)c(O)c2O [CASTALAGIN],inactive,inactive,inactive,70%
O=C1OC[C@H]2OC(=O)c3cc(O)c(O)c(O)c3-c3c(O)c(O)c(O)c4c3C(=O)O[C@H]([C@@H](O)[C@@H](O)c3c(O)c(O)c(O)c-4c3C(=O)O)[C@@H]2OC(=O)c2cc(O)c(O)c(O)c2-c2c1cc(O)c(O)c2O [CHINQUAPINIC ACID],inactive,inactive,inactive,70%
O=C1OCC2OC(=O)c3cc(O)c(O)c(O)c3-c3c(O)c(O)c(O)c4c3C(=O)OC(C2OC(=O)c2cc(O)c(O)c(O)c2-c2c1cc(O)c(O)c2O)C1OC(=O)c2c-4c(O)c(O)c(O)c2C1O (configuration not stated) [VESCALAGIN],inactive,inactive,inactive,70%
